Values of other authors, collected in patent US20230414697A1, “ENHANCED GINGEROLS FOR PATIENTS SUFFERING FROM NAUSEA AND EMESIS” (Aphios Corporation, priority 2020, published 2023).

How the values were obtained:
[1] = post-operative; reported by Bone and colleagues
[2] = ginger 0.5 gm or 1 gm, metochlopramide 10 mg
[3] = 2.0 gm oral ginger, 1.25 mg intravenous droperidol, placebo; 24 hour period following surgery

Row | SMILES | frequency of emesis, differences between the three arms (ginger, metochlopramide, placebo, post-operative) | patients nauseated (post operative, placebo 41%) | vomiting vs placebo [1] | post-operative nausea vs placebo ([2]; both studies) | effectiveness for post-operative nausea, ginger compared with metochlopramide ([2]; women undergoing gynecologic surgery, two studies) | differences in frequency or severity of post-operative nausea or frequency of post-operative vomiting [3]
1 | CCN(CC)CCNC(=O)c1cc(Cl)c(N)cc1OC [metochlopramide] | no significant differences | placebo, 27% | less vomiting | significantly more effective than placebo | equal effectiveness | 
2 | O=C(CCCN1CC=C(n2c(=O)[nH]c3ccccc32)CC1)c1ccc(F)cc1 [droperidol] |  |  |  |  |  | no differences
